According to patent publication US20070185183A1, “Indolinesulphanilic acid amides as ppar-delta modulators” (Bayer HealthCare AG, priority 2003, published 2007):

Target: T1, human PPARδ receptor (Homo sapiens, UniProt Q03181)
T1 construct: expressed in transfected cells
T1 sequence (Q03181 211-439 limits assumed): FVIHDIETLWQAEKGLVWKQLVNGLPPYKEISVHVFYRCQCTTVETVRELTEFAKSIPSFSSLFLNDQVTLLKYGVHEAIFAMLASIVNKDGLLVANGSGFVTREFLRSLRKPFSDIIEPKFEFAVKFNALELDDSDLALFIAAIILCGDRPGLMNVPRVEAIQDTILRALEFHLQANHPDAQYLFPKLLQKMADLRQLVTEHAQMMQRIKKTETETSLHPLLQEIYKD
Experiment: Cellular transactivation assay (GAL4-PPARδ chimera, luciferase reporter)
Format: cell-based
Conditions: GAL4-PPARδ chimera stably expressed in CHO cells, 24 hours stimulation
Text: A cellular assay is used to identify activators of the peroxisome proliferator-activated receptor delta (PPAR-delta).
Since mammalian cells contain different endogenous nuclear receptors which may complicate an unambiguous interpretation of the results, an established chimera system is used in which the ligand binding domain of the human PPARδ receptor is fused to the DNA binding domain of the yeast transcription factor GAL4. The resulting GAL4-PPARδ chimera is co-transfected and stably expressed in CHO cells having a reporter construct.
The GAL4-PPARδ expression construct contains the ligand binding domain of PPARδ (amino acids […]), which is PCR-amplified and cloned into the vector pcDNA3.1. This vector already contains the GAL4 DNA binding domain (amino acids 1-147) of the vector pFC2-dbd (Stratagene). […]
CHO (chinese hamster ovary) cells are sown in CHO-A-SFM medium (GIBCO), supplemented by 2.5% foetal calf serum and 1% penicillin/streptomycin (GIBCO), at a cell density of 2×10^3 cells per well in a 384-well plate (Greiner). […] After a stimulation period of 24 hours, the luciferase activity is measured using a video camera. The relative light units measured give, as a function of the substance concentration, a sigmoidal stimulation curve. The EC50 values are calculated using the computer program GraphPad PRISM (Version 3.02).

EC50: 8.5 nM
SMILES: CN(CC(=O)O)c1ccc(S(=O)(=O)N2CC(C)(C)c3cc(-c4ccc(C(F)(F)F)cc4)ccc32)cc1 [Working Example 1, N-[4-({3,3-Dimethyl-5-[4-(trifluoromethyl)phenyl]-2,3-dihydro-1H-indol-1-yl}sulphonyl)phenyl]-N-methylglycine]
